Legend:
Rattus norvegicus [1] = experiment: Effect on nitrogen balance in Wistar rat diabetic model assessed as residual fecal nitrogen at 10 mg/day, ip for 6 days measured 6 hrs after last dose relative to diabetic control; format: functional, Feces
Rattus norvegicus [2] = experiment: Effect on nitrogen balance in Wistar rat diabetic model assessed as retained nitrogen at 10 mg/day, ip for 6 days measured 6 hrs after last dose relative to diabetic control; format: functional
Rattus norvegicus [3] = experiment: Effect on nitrogen balance in Wistar rat diabetic model assessed as absorbed nitrogen at 10 mg/day, ip for 6 days measured 6 hrs after last dose relative to non-diabetic control; format: functional
Rattus norvegicus [4] = experiment: Effect on nitrogen balance in Wistar rat diabetic model assessed as residual fecal nitrogen at 10 mg/day, ip for 6 days measured 6 hrs after last dose relative to non-diabetic control; format: functional, Feces
Rattus norvegicus [5] = experiment: Effect on nitrogen balance in Wistar rat diabetic model assessed as absorbed nitrogen at 10 mg/day, ip for 6 days measured 6 hrs after last dose relative to diabetic control; format: functional
Rattus norvegicus [6] = experiment: Effect on nitrogen balance in Wistar rat diabetic model assessed as residual urinary nitrogen at 10 mg/day, ip for 6 days measured 6 hrs after last dose relative to diabetic control; format: functional, Urine
Rattus norvegicus [7] = experiment: Effect on nitrogen balance in Wistar rat diabetic model assessed as residual urinary nitrogen at 10 mg/day, ip for 6 days measured 6 hrs after last dose relative to non-diabetic control; format: functional, Urine
Rattus norvegicus [8] = experiment: Effect on nitrogen balance in Wistar rat diabetic model assessed as retained nitrogen at 10 mg/day, ip for 6 days measured 6 hrs after last dose relative to non-diabetic control; format: functional

Compound: CC(C)=CCC[C@](C)(O[C@@H]1O[C@H](CO[C@@H]2OC[C@H](O)[C@H](O)[C@H]2O)[C@@H](O)[C@H](O)[C@H]1O)[C@H]1CC[C@]2(C)[C@@H]1[C@H](O)C[C@@H]1[C@@]3(C)CC[C@H](O[C@@H]4O[C@H](CO)[C@@H](O)[C@H](O)[C@H]4O[C@@H]4O[C@H](CO)[C@@H](O)[C@H](O)[C@H]4O)C(C)(C)[C@@H]3CC[C@]12C [GINSENOSIDE RB2]
- Activity (Rattus norvegicus [1]): 93%
- Activity (Rattus norvegicus [2]): 415%
- Activity (Rattus norvegicus [3]): 225%
- Activity (Rattus norvegicus [4]): 186%
- Activity (Rattus norvegicus [5]): 104%
- Activity (Rattus norvegicus [6]): 75%
- Activity (Rattus norvegicus [7]): 223%
- Activity (Rattus norvegicus [8]): 313%

Reference: ChEMBL document CHEMBL1147323, “The effect of ginsenoside-Rb2 on nitrogen balance” (1989)
